Patent US8193170B2, “2-methylene-19,26-dinor-(20R,22E,25R)-vitamin D analogs” (Wisconsin Alumni Research Foundation, priority 2008, dated 2012)
Entries after “also recorded” stand apart in the source; their conditions may differ.

Assays:
HL-60 cells = assay: HL-60 cell differentiation (nitro blue tetrazolium reduction); assay type: cell-based, human; conditions: for EC50: differentiation of HL-60 cells into monocytes, FIG. 2
Experimental: The study drugs were dissolved in ethanol and the concentrations determined using UV spectrophotometry. Serial dilutions were prepared so that a range of drug concentrations could be tested without changing the final concentration of ethanol (≦0.2%) present in the cell cultures.
Human promyelocytic leukemia (HL60) cells were grown in RPMI-1640 medium containing 10% fetal bovine serum. The cells were incubated at 37° C. in the presence of 5% CO2.
HL60 cells were plated at 1.2×10^5 cells/ml. Eighteen hours after plating, cells in duplicate were treated with drug. Four days later, the cells were harvested and a nitro blue tetrazolium reduction assay was performed (Collins et al., 1979; J. Exp. Med. 149:969-974). The percentage of differentiated cells was determined by counting a total of 200 cells and recording the number that contained intracellular black-blue formazan deposits. Verification of differentiation to monocytic cells was determined by measuring phagocytic activity (data not shown).

[1] = test system: 24-hydroxylase (24Ohase) gene promoter in ROS 17/2.8 (bone) cells; assay: In vitro transcription assay (24-hydroxylase gene promoter luciferase reporter); assay type: cell-based; conditions: for EC50: ROS 17/2.8 cells, 24-hydroxylase promoter-luciferase, FIG. 3, read-out: EC50, transcriptional activity in bone cells
Experimental: Transcription activity was measured in ROS 17/2.8 (bone) cells that were stably transfected with a 24-hydroxylase (24Ohase) gene promoter upstream of a luciferase reporter gene (Arbour et al., 1998). Cells were given a range of doses. Sixteen hours after dosing the cells were harvested and luciferase activities were measured using a luminometer.
RLU=relative luciferase units.

[2] = Bone calcium mobilization (serum calcium) in vitamin D-deficient rats; assay type: in vivo, rat; conditions: rats on 0.02% Ca diet, FIG. 4
Experimental: (§1) Male, weanling Sprague-Dawley rats were placed on Diet 11 (0.47% Ca) diet+AEK oil for one week followed by Diet 11 (0.02% Ca)+AEK oil for 3 weeks. The rats were then switched to a diet containing 0.47% Ca for one week followed by two weeks on a diet containing 0.02% Ca. Dose administration began during the last week on 0.02% calcium diet. Four consecutive ip doses were given approximately 24 hours apart. Twenty-four hours after the last dose, blood was collected from the severed neck and the concentration of serum calcium determined as a measure of bone calcium mobilization. The first 10 cm of the intestine was also collected for intestinal calcium transport analysis using the everted gut sac method.

[3] = Intestinal calcium transport, everted gut sac method, in vitamin D-deficient rats; assay type: in vivo, rat; conditions: FIG. 5
Experimental: as §1

[4] = target: T1, full-length recombinant rat vitamin D receptor (Rattus norvegicus, UniProt P13053); assay: Vitamin D receptor competitive binding with [3H]-1,25(OH)2D3
T1 construct: Full-length recombinant rat receptor was expressed in E. coli; histidine tag (C); made in house; host or cells: E. coli BL21 (DE3) Codon Plus RIL
T1 sequence (P13053 1-423): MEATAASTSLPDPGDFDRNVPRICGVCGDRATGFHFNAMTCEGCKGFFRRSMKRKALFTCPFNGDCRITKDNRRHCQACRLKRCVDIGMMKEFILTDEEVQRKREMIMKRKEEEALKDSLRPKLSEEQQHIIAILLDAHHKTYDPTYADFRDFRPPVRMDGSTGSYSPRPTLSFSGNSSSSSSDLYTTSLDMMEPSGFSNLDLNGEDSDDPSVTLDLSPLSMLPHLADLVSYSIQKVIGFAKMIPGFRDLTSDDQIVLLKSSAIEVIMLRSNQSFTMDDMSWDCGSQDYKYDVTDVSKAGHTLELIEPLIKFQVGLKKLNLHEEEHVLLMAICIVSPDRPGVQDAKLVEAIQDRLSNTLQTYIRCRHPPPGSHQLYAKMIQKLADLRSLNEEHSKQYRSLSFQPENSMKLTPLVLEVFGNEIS
Experimental: Full-length recombinant rat receptor was expressed in E. coli BL21 (DE3) Codon Plus RIL cells and purified to homogeneity using two different column chromatography systems. The first system was a nickel affinity resin that utilizes the C-terminal histidine tag on this protein. The protein that was eluted from this resin was further purified using ion exchange chromatography (S-Sepharose Fast Flow). Aliquots of the purified protein were quick frozen in liquid nitrogen and stored at −80° C. until use. For use in binding assays, the protein was diluted in TEDK50 (50 mM Tris, 1.5 mM EDTA, pH7.4, 5 mM DTT, 150 mM KCl) with 0.1% Chaps detergent. The receptor protein and ligand concentration were optimized such that no more than 20% of the added radiolabeled ligand was bound to the receptor.
Radiolabeled and unlabeled ligands were added to 100 mcl of the diluted protein at a final ethanol concentration of ≦10%, mixed and incubated overnight on ice to reach binding equilibrium. The following day, 100 mcl of hydroxylapatite slurry (50%) was added to each tube and mixed at 10-minute intervals for 30 minutes. The hydroxylapaptite was collected by centrifugation and then washed three times with Tris-EDTA buffer (50 mM Tris, 1.5 mM EDTA, pH 7.4) containing 0.5% Titron X-100. […] Total binding was determined from the tubes containing only radiolabeled ligand.

[5] = 780 pmol/day ip for 4 consecutive days

Compound	EC50 (HL-60 cells) [nM]	EC50 [1] [nM]	Bone calcium mobilization (serum calcium) [2, 5]	Serum calcium levels ([2]; all dosages tested)	EC50 (HL-60 cells; Homo sapiens) [nM]	HL-60 cell differentiation activity relative to 1,25(OH)2D3 (times more) (HL-60 cells; more active than 1,25(OH)2D3)	Transcription activity of the 24-hydroxylase gene relative to 1,25(OH)2D3 (times more) ([1]; more potent than 1,25(OH)2D3, bone cells)	Intestinal calcium transport activity [3, 5]	Intestinal calcium transport, dose dependence ([3]; range of doses)	Bone calcium mobilization (serum calcium) ([2]; 2,340 pmol/day ip for 4 consecutive days)	Ki ([4]; full-length recombinant rat VDR, FIG. 1, read-out: Ki, competition with [3H]-1,25(OH)2D3 for binding to the vitamin D receptor) [nM]	VDR binding potency relative to 1,25(OH)2D3 (times less potent) ([4]; less potent than 1,25(OH)2D3)
C=C1/C(=C\C=C2/CCC[C@]3(C)[C@@H]([C@H](C)CCCC(C)(C)O)CC[C@@H]23)C[C@@H](O)C[C@@H]1O [1,25(OH)2D3, 1α,25-dihydroxyvitamin D3, reference compound]	2	0.2	significant activity	increased serum calcium levels at all dosages	–	–	–	–	–	–	–	–
C=C1[C@H](O)CC(=C/C=C2\CCC[C@]3(C)[C@@H]([C@H](C)/C=C/C[C@@H](C)O)CC[C@@H]23)C[C@H]1O [RR-22, 2-methylene-19,26-dinor-(20R,22E,25R)-1α,25-dihydroxyvitamin D3]	–	0.02	–	–	0.2	about 10 times	about 10 times	almost the same activity as 1,25(OH)2D3	promotes intestinal calcium transport in a dose dependent manner	did not result in any mobilization of bone calcium; also recorded: no bone calcium mobilization activity	0.1	about 10 times
